# Values of other authors, collected in US12318461B2, “Salicylic acid gel” (Vantage Specialty Ingredients, Inc., priority 2012, dated 2025).
structure (smiles),measurement,value
"O=C(O)c1ccccc1O [Salicylic acid, 2-hydroxybenzenecarboxylic acid]",solubility in water,poorly soluble
